pIC50: −log10 of the molar value.
Key:
[1] = target: Non-receptor tyrosine-protein kinase TYK2 (Homo sapiens, UniProt P29597); assay: Inhibition of TYK2
[2] = target: Tyrosine-protein kinase JAK1 (Homo sapiens, UniProt P23458); assay: Inhibition of recombinant JAK1 using poly(Glu,Ala,Tyr) as substrate after 2 hrs by luminometric assay
[3] = target: T1, Receptor-type tyrosine-protein kinase FLT3 (Homo sapiens, UniProt P36888); assay: Inhibition of recombinant FLT3 using poly(Glu,Tyr) as substrate after 2 hrs by luminometric assay
T1 sequence (P36888 whole entry): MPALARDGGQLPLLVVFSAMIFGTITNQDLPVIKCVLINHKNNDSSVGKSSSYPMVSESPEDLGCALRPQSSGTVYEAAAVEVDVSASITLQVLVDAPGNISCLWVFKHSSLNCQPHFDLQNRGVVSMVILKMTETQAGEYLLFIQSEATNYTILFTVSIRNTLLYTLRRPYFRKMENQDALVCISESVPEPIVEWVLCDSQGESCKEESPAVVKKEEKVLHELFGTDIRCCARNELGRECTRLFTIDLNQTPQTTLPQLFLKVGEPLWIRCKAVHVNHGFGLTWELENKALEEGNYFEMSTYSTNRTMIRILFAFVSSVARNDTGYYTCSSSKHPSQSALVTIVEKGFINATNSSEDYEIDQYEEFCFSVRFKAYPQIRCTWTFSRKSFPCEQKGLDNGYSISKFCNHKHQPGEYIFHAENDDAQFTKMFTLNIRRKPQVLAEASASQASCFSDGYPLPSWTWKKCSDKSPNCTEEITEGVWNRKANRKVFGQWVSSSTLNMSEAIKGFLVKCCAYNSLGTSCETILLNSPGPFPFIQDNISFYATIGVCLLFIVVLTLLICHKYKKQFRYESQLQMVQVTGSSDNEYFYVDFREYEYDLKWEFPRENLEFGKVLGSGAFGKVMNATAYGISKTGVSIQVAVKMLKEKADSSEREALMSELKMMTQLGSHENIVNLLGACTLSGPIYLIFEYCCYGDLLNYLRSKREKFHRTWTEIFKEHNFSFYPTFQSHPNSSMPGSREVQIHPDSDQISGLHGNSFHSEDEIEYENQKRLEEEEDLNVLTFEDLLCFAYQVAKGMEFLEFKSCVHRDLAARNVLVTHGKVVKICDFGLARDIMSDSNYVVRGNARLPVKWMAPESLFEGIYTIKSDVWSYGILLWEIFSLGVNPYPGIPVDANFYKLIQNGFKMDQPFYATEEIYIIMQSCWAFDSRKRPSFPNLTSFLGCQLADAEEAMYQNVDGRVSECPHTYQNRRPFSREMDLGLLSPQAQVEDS

[4] = target: Tyrosine-protein kinase JAK2 (Homo sapiens, UniProt O60674); assay: Inhibition of recombinant JAK2 using poly(Glu,Ala,Tyr) as substrate after 2 hrs by luminometric assay
[5] = target: Cyclin-dependent kinase 2 (Homo sapiens, UniProt P24941); assay: Inhibition of recombinant CDK2 using RbING as substrate after 2 hrs by luminometric assay
[6] = target: T2, Tyrosine-protein kinase JAK3 (Homo sapiens, UniProt P52333); assay: Inhibition of recombinant JAK3 using poly(Glu,Ala,Tyr) as substrate after 2 hrs by luminometric assay
T2 sequence (P52333 whole entry): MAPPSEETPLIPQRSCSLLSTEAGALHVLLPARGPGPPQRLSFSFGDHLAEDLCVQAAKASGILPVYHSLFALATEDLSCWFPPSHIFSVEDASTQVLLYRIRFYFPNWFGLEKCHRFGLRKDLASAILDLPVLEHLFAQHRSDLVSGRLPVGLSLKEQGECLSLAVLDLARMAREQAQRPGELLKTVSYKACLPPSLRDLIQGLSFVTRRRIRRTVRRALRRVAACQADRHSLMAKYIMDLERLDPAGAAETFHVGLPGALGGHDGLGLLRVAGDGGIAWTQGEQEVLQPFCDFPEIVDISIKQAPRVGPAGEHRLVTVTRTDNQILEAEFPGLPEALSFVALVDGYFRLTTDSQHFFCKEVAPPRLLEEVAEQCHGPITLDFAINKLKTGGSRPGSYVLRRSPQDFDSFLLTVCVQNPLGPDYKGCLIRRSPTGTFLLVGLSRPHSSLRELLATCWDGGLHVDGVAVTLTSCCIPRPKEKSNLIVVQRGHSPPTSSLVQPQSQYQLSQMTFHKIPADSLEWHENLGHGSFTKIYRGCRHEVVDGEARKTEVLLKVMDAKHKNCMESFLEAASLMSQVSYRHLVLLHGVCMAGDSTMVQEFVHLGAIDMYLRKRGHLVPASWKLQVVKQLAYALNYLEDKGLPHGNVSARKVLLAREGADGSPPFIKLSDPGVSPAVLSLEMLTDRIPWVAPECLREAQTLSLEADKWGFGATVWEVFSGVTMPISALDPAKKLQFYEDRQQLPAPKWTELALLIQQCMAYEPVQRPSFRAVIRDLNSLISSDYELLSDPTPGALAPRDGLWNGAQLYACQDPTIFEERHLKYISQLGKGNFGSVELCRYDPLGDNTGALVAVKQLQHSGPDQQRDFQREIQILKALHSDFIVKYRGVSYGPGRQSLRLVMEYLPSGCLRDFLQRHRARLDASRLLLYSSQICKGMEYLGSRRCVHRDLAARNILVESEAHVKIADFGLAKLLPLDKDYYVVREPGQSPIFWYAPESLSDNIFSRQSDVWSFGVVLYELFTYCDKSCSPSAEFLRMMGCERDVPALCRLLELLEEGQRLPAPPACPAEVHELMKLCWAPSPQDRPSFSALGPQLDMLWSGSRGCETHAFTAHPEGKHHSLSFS

HL-60 = assay: Antiproliferative activity against human HL60 cells expressing FLT3 after 48 hrs by luciferase reporter gene assay; assay type: functional; details: HL-60, 48 h
[7] = Half life in human liver microsomes; assay type: ADME, Microsome
[8] = Selectivity ratio of IC50 for recombinant CDK2 to IC50 for recombinant JAK2
[9] = Selectivity ratio of IC50 for recombinant JAK1 to IC50 for recombinant JAK2
BaF3 = assay: Antiproliferative activity against mouse BAF3 cells expressing JAK2 V617F mutant after 48 hrs by luciferase reporter gene assay; assay type: functional; details: BaF3, 48 h
[10] = Selectivity ratio of IC50 for recombinant JAK3 to IC50 for recombinant JAK2
[11] = Kinetic solubility in PBS buffer at pH 7; assay type: physicochemical; details: read-out: Kinetic_solubility
[12] = Half life in mouse liver microsomes; assay type: ADME, Microsome

Non-receptor tyrosine-protein kinase TYK2, sequence (P29597 whole entry): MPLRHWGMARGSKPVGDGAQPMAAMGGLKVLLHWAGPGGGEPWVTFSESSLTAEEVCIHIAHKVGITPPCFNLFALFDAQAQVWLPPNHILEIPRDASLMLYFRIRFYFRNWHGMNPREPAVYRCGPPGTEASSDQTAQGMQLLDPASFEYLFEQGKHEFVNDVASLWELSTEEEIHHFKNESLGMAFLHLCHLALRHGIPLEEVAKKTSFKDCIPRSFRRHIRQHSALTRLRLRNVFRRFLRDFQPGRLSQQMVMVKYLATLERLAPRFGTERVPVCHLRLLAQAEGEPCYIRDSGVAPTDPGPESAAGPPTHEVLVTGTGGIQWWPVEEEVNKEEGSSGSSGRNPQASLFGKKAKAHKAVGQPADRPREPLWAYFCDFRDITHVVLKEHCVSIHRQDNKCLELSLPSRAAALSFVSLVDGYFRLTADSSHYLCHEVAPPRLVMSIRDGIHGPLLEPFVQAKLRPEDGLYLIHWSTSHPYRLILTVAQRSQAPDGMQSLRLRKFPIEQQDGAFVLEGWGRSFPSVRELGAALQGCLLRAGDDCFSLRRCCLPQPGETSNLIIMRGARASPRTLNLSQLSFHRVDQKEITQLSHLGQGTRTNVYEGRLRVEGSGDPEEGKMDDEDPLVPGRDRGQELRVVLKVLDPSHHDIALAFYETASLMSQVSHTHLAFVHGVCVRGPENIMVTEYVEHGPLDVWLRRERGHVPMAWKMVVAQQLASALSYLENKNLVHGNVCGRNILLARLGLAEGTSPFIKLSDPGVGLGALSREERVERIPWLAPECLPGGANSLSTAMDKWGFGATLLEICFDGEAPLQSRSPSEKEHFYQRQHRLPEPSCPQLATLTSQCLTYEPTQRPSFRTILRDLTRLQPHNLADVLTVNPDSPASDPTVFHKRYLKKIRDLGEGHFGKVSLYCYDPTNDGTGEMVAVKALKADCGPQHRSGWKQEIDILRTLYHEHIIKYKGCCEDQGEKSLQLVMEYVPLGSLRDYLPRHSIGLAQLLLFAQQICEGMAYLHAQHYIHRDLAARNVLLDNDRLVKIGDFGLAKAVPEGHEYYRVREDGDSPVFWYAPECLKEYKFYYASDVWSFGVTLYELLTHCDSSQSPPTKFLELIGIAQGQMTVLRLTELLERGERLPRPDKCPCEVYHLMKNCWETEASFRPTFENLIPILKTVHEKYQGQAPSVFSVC
Tyrosine-protein kinase JAK1, sequence (P23458 whole entry): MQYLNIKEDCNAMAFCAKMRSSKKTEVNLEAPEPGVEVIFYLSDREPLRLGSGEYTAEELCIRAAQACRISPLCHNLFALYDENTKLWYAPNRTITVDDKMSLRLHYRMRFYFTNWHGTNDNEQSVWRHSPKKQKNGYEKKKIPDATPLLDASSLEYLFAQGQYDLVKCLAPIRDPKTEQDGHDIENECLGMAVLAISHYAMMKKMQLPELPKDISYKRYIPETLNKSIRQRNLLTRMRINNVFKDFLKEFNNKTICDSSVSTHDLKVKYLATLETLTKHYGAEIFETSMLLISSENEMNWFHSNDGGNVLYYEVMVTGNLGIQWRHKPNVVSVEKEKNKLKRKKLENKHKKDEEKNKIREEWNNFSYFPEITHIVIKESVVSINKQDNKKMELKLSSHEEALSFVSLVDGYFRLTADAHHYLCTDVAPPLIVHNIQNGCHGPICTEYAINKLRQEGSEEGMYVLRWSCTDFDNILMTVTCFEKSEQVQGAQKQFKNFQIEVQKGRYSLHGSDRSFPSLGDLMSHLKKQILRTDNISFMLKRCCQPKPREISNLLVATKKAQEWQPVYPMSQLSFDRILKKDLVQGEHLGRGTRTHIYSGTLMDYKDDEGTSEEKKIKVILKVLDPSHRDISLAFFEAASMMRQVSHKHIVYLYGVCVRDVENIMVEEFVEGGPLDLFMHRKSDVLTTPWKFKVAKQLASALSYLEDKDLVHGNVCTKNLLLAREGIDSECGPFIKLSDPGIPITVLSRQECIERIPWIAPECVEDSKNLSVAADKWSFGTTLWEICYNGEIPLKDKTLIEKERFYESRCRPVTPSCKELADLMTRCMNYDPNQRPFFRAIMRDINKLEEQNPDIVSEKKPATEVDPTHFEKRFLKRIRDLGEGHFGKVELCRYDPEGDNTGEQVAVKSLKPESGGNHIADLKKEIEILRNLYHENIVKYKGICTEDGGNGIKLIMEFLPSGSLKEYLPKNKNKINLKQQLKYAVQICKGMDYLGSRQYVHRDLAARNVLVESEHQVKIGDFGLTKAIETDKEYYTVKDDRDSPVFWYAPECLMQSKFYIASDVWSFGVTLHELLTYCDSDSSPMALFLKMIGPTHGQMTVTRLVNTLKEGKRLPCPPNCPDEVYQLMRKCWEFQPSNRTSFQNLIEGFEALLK
Tyrosine-protein kinase JAK2, sequence (O60674 whole entry): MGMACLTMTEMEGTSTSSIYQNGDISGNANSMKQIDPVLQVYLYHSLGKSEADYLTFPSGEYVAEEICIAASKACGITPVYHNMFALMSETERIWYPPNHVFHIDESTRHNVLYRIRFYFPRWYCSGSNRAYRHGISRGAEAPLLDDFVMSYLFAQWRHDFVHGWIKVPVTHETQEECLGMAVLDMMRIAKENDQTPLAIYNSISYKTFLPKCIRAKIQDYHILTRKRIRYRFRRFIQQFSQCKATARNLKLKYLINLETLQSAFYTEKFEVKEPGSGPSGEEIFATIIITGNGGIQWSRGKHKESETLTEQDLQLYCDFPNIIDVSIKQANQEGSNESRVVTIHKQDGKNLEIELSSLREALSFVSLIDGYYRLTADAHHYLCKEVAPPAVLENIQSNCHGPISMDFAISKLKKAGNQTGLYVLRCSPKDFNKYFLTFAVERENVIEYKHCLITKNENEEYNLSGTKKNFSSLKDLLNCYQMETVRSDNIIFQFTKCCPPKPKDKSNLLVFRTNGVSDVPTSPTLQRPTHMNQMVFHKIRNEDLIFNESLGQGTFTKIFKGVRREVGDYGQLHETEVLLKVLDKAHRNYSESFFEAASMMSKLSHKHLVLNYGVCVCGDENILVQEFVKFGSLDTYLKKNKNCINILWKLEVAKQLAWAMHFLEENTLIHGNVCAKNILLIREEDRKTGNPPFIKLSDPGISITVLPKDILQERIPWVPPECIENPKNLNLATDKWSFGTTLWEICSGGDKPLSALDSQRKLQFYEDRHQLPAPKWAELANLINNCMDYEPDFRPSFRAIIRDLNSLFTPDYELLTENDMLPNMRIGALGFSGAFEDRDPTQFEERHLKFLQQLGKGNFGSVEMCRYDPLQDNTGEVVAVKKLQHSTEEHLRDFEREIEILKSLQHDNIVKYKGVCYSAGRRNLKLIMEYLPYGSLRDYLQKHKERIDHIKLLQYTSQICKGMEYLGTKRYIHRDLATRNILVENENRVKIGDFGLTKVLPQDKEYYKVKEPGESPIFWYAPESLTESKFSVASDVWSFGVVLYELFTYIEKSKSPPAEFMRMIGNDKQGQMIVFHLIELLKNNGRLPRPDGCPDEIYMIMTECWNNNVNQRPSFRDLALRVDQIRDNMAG

**Q.** With `CN1C/C=C/COCC2=CC=C(O2)c2ccnc(n2)Nc2cccc(c2)C1` (mixture of isomers) as the compound, how does the pIC50 [1] read?
**A.** The pIC50 was 5.82.

**Q.** And the pIC50 [2]?
**A.** The pIC50 was 5.74.

**Q.** And the pIC50 [3]?
**A.** The pIC50 was 6.11.

**Q.** And the pIC50 [4]?
**A.** Its pIC50 is 6.09.

**Q.** And the pIC50 [5]?
**A.** Its pIC50 is 6.49.

**Q.** What about the pIC50 [6] of the same compound?
**A.** The pIC50 was under 5.00.

**Q.** With `C1=C/COCc2cc(ccc2OCCN2CCCC2)Nc2nccc(n2)-c2cc(co2)COC/1` (mixture of isomers) as the compound, how does the pIC50 [1] read?
**A.** The pIC50 was 6.51.

**Q.** And the pIC50 [2]?
**A.** The pIC50 was 5.72.

**Q.** And the pIC50 [3]?
**A.** Its pIC50 is 6.74.

**Q.** What about the pIC50 [4] of the same compound?
**A.** The pIC50 was 6.96.

**Q.** What about the pIC50 [5] of the same compound?
**A.** The pIC50 was under 5.00.

**Q.** What about the pIC50 [6] of the same compound?
**A.** Its pIC50 is 5.04.

**Q.** With `C1=C/COCc2cc(ccc2OCCN2CCCC2)Nc2nccc(n2)-c2csc(c2)COC/1` (mixture of isomers) as the compound, how does the pIC50 [1] read?
**A.** The pIC50 was 7.33.

**Q.** What about the pIC50 [2] of the same compound?
**A.** The pIC50 was 5.82.

**Q.** And the pIC50 [3]?
**A.** Its pIC50 is 7.35.

**Q.** And the pIC50 [4]?
**A.** Its pIC50 is 7.77.

**Q.** And the pIC50 [5]?
**A.** Its pIC50 is 5.17.

**Q.** What about the GI50 (HL-60) of the same compound?
**A.** The GI50 was 640 nM.

**Q.** What about the half-life [7] of the same compound?
**A.** Its half-life is over 60 min.

**Q.** And the Ratio IC50 [8]?
**A.** Its Ratio IC50 is 400.

**Q.** What about the Ratio IC50 [9] of the same compound?
**A.** Its Ratio IC50 is 88.

**Q.** What about the GI50 (BaF3) of the same compound?
**A.** Its GI50 is 80 nM.

**Q.** What about the Ratio IC50 [10] of the same compound?
**A.** Its Ratio IC50 is 40.

**Q.** What about the solubility kinetic [11] of the same compound?
**A.** Its solubility kinetic is 218 µg/mL.

**Q.** And the half-life [12]?
**A.** The half-life was 25 min.

**Q.** What about the pIC50 [6] of the same compound?
**A.** The pIC50 was 6.17.

**Q.** With `CN1C/C=C/COCC2=CC=C(S2)c2ccnc(n2)Nc2ccc(OCCN3CCCC3)c(c2)C1` (mixture of isomers) as the compound, how does the pIC50 [1] read?
**A.** Its pIC50 is 7.39.

**Q.** What about the pIC50 [2] of the same compound?
**A.** Its pIC50 is 6.70.

**Q.** What about the pIC50 [3] of the same compound?
**A.** The pIC50 was 7.92.

**Q.** What about the pIC50 [4] of the same compound?
**A.** Its pIC50 is 7.05.

**Q.** What about the pIC50 [5] of the same compound?
**A.** Its pIC50 is 6.15.

**Q.** What about the pIC50 [6] of the same compound?
**A.** The pIC50 was under 5.00.

**Q.** With `C1=C/COCc2cc(ccc2OCCN2CCCC2)Nc2nccc(n2)-c2ccnc(c2)OCC/1` (mixture of isomers) as the compound, how does the pIC50 [1] read?
**A.** The pIC50 was 7.52.

**Q.** What about the pIC50 [2] of the same compound?
**A.** Its pIC50 is 6.01.

**Q.** What about the pIC50 [3] of the same compound?
**A.** The pIC50 was 7.51.

**Q.** What about the pIC50 [4] of the same compound?
**A.** Its pIC50 is 7.74.

**Q.** What about the pIC50 [5] of the same compound?
**A.** Its pIC50 is 6.57.

**Q.** And the pIC50 [6]?
**A.** Its pIC50 is 5.85.

**Q.** With `C1=C/Cn2ccc3ccc(cc32)-c2ccnc(n2)Nc2ccc(OCCN3CCCC3)c(c2)COC/1` (mixture of isomers) as the compound, how does the pIC50 [3] read?
**A.** Its pIC50 is 8.10.

**Q.** What about the pIC50 [4] of the same compound?
**A.** The pIC50 was 7.20.

**Q.** And the pIC50 [5]?
**A.** Its pIC50 is 6.64.

**Q.** And the pIC50 [6]?
**A.** The pIC50 was 5.94.

**Q.** With `COCCOc1ccc2cc1CN(C)C/C=C/COCC1=CC=C(O1)c1ccnc(n1)N2` (mixture of isomers) as the compound, how does the pIC50 [1] read?
**A.** Its pIC50 is 6.23.

**Q.** And the pIC50 [2]?
**A.** The pIC50 was 5.49.

**Q.** And the pIC50 [3]?
**A.** The pIC50 was 5.92.

**Q.** And the pIC50 [4]?
**A.** Its pIC50 is 5.96.

**Q.** What about the pIC50 [5] of the same compound?
**A.** Its pIC50 is 5.07.

**Q.** What about the pIC50 [6] of the same compound?
**A.** The pIC50 was under 5.00.

**Q.** Which Ratio IC50 [8] does the source give for `C1=C/COCc2cc(ccc2OCCN2CCCC2)Nc2nccc(n2)-c2ccc(s2)COC/1` (mixture of isomers) here?
**A.** Its Ratio IC50 is 397.

**Q.** And the Ratio IC50 [9]?
**A.** The Ratio IC50 was 57.

**Q.** And the Ratio IC50 [10]?
**A.** The Ratio IC50 was 89.

**Q.** With `COCCOc1ccc2cc1CN(C)C/C=C/COCC1=CC=C(S1)c1ccnc(n1)N2` (mixture of isomers) as the compound, how does the pIC50 [1] read?
**A.** The pIC50 was 7.48.

**Q.** What about the pIC50 [2] of the same compound?
**A.** The pIC50 was 6.41.

**Q.** And the pIC50 [3]?
**A.** The pIC50 was 7.66.

**Q.** And the pIC50 [4]?
**A.** Its pIC50 is 6.77.

**Q.** What about the pIC50 [5] of the same compound?
**A.** Its pIC50 is 6.48.

**Q.** And the pIC50 [6]?
**A.** The pIC50 was under 5.00.

**Q.** With `CN1C/C=C/CCOc2cc(ccn2)-c2ccnc(n2)Nc2cccc(c2)C1` (mixture of isomers) as the compound, how does the pIC50 [1] read?
**A.** Its pIC50 is 7.19.

**Q.** What about the pIC50 [2] of the same compound?
**A.** Its pIC50 is 6.77.

**Q.** And the pIC50 [3]?
**A.** The pIC50 was 6.51.

**Q.** What about the pIC50 [4] of the same compound?
**A.** Its pIC50 is 6.59.

**Q.** What about the pIC50 [5] of the same compound?
**A.** Its pIC50 is 7.66.

**Q.** What about the pIC50 [6] of the same compound?
**A.** The pIC50 was under 5.00.

— ChEMBL document CHEMBL2034857, “Discovery of the macrocycle (9E)-15-(2-(pyrrolidin-1-yl)ethoxy)-7,12,25-trioxa-19,21,24-triaza-tetracyclo[18.3.1.1(2,5).1(14,18)]hexacosa-1(24),2,4,9,14(26),15,17,20,22-nonaene (SB1578), a potent inhibitor of janus kinase 2/fms-like tyrosine kinase-3 (JAK2/FLT3) for the treatment of rheumatoid …” (J Med Chem, 2012)
